# Assay results as given in EP0745595A1, “3-(3-Aryloxyphenyl)-1-(substituted methyl)-s-triazine-2,4,6-oxo or thiotrione herbicidal agents” (American Cyanamid Company, priority 1995, dated 1996).
# Experiments:
# Type in all cases: in vivo
# [1] = test system: ABUTILON THEOPHRASTI, MEDIC.; experiment: Postemergence herbicidal evaluation, ABUTH (Velvetleaf);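 on ABUTH: higher means more injury with 8 approaching complete kill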
# Method in brief: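 Velvetleaf (Abutilon theophrasti) seedlings were raised in jiffy flats for about two weeks and then sprayed postemergence. The test compound was dispersed in a 50/50 acetone/water mixture containing 0.5% TWEEN®20 and applied through a nozzle operating at 40 psi. Plants were kept on greenhouse benches and rated 0-9 four to five weeks after treatment.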
# [2] = test system: AMBROSIA ARTEMISIIFOLIA, L.; experiment: Postemergence herbicidal evaluation, AMBEL (Ragweed, Common);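 on AMBEL: higher means more injury with 8 approaching complete kill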
# Method in brief: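 Common ragweed (Ambrosia artemisiifolia) seedlings were raised in jiffy flats for roughly two weeks, then sprayed postemergence through a nozzle at 40 psi with the test compound dispersed in 50/50 acetone/water carrying 0.5% TWEEN®20. The plants were kept on greenhouse benches under conventional care. Four to five weeks later, injury was rated visually on a 0-9 scale, and repeat tests were averaged.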
# CASSIA OBTUSIFOLIA, L. = experiment: Postemergence herbicidal evaluation, CASOB (Sicklepod); design: key to CASOB rating / Herbicidal effect rating, CASOB / CASOB: 0-9 visual rating scale vs untreated control;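 on CASOB: higher means more injury with 8 approaching complete kill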
# Method in brief: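 Seedlings about two weeks old were sprayed with compound in 50/50 acetone/water containing 0.5% Tween 20 at about 0.125-0.500 kg/ha and kept in the greenhouse. Visual injury was rated on a 0-9 scale versus control 4-5 weeks after treatment; repeat tests were averaged.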
# CHENOPODIUM ALBUM, L. = experiment: Postemergence herbicidal evaluation, CHEAL (Lambsquarters, Common);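 on CHEAL: higher means more injury with 8 approaching complete kill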
# Method in brief: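 Seedlings of common lambsquarters (Chenopodium album) were raised in jiffy flats for roughly two weeks, then sprayed postemergence through a nozzle at 40 psi with test compound dispersed in 50/50 acetone/water containing 0.5% TWEEN®20 surfactant. Plants were kept on greenhouse benches under standard care and rated visually on a 0-9 scale versus controls.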
# IPOMOEA SPP. = experiment: Postemergence herbicidal evaluation, IPOSS (Morningglory spp.);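 on IPOSS: higher means more injury with 8 approaching complete kill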
# Method in brief: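 Seedlings of morningglory (Ipomoea spp.) were raised in jiffy flats for roughly two weeks. They were then sprayed postemergence through a nozzle at 40 psi with test compound dispersed in 50/50 acetone/water containing 0.5% TWEEN®20 surfactant. Plants were kept on greenhouse benches under standard care and visually rated 0-9 against controls four to five weeks after treatment.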
# [3] = test system: ECHINOCHLOA CRUS-GALLI, (L) BEAU; experiment: Postemergence herbicidal evaluation, ECHCG (Barnyardgrass); design: key to ECHCG rating / Herbicidal effect rating, ECHCG / ECHCG: 0-9 visual rating scale vs untreated control
# Method in brief: (§1)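 Greenhouse postemergence test. Seedlings (~2 wk) sprayed at 40 psi; dose ~0.125–0.500 kg/ha in acetone/water (1:1), 0.5% TWEEN 20. Scored 0–9 at 4–5 wk.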
# [4] = test system: SETARIA VIRIDIS, (L) BEAU; experiment: Postemergence herbicidal evaluation, SETVI (Foxtail, Green); design: key to SETVI rating / Herbicidal effect rating, SETVI / SETVI: 0-9 visual rating scale vs untreated control
# Method in brief: as §1
# [5] = test system: TRITICUM AESTIVUM, CV. APOLLO; experiment: Postemergence herbicidal evaluation, TRZAWO (Wheat, Winter, CV. APOLLO);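 on TRZAWO: higher means more injury with 8 approaching complete kill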
# Description: In the tests, seedling plants are grown in jiffy flats for about two weeks. The test compounds are dispersed in 50/50 acetone/water mixtures containing 0.5% TWEEN®20, a polyoxyethylene sorbitan monolaurate surfactant of Atlas Chemical Industries, […] through a spray nozzle operating at 40 psi for a predetermined time. After spraying, the plants are placed on greenhouse benches and are cared for in the usual manner, commensurate with conventional greenhouse practices. From four to five weeks after treatment, the seedling plants are examined and rated according to the rating system set forth below. Where more than one test is involved for a given compound, the data are averaged.
# (§2) Plant species employed in these evaluations are reported by header abbreviation, common name and scientific name.
# (§3) Results of herbicide evaluation are expressed on a rating scale (0-9). The scale is based upon a visual observation of plant stand, vigor, malformation, size, chlorosis and overall plant appearance as compared with a control.
# ZEA MAYS L. = experiment: Postemergence herbicidal evaluation, ZEAMX (Corn, Field);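 on ZEAMX: higher means more injury with 8 approaching complete kill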
# Description: In the tests, seedling plants are grown in jiffy flats for about two weeks. The test compounds are dispersed in 50/50 acetone/water mixtures containing 0.5% TWEEN®20, a polyoxyethylene sorbitan monolaurate surfactant of Atlas Chemical Industries, […] to the plants through a spray nozzle operating at 40 psi for a predetermined time. After spraying, the plants are placed on greenhouse benches and are cared for in the usual manner, commensurate with conventional greenhouse practices. From four to five weeks after treatment, the seedling plants are examined and rated according to the rating system set forth below. Where more than one test is involved for a given compound, the data are averaged.
# as §2, §3
# [6] = test system: ORYZA SATIVA, L. TEBONNET; experiment: Rice tolerance to post-transplant applications under flooded paddy conditions, ORYSAT (Rice, Tebonnet); settings: post-transplanted rice
# Method in brief: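 Post-transplant paddy test: compound applied 3 d after transplanting to flooded soil (1.5-3 cm water), ~0.063-0.5 kg/ha a.i., 50/50 aq/acetone. Silt loam, 2 × 10-d seedlings/pot. Greenhouse 3-4 wk, visual 0-9 score vs control.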
compound,measurement,setting,value
"Cn1c(=O)[nH]c(=O)n(-c2cc(Oc3c(F)cc(C(F)(F)F)cc3Cl)ccc2F)c1=O [C, reference compound]","Herbicidal effect rating, ABUTH",[1]; 0.031 kg/ha,2.0
same,"Herbicidal effect rating, ABUTH",[1]; 0.063 kg/ha,4.0
same,"Herbicidal effect rating, ABUTH",[1]; 0.125 kg/ha,7.0
same,"Herbicidal effect rating, ABUTH",[1]; 0.250 kg/ha,7.0
same,"Herbicidal effect rating, AMBEL",[2]; 0.031 kg/ha,1.0
same,"Herbicidal effect rating, AMBEL",[2]; 0.063 kg/ha,3.0
same,"Herbicidal effect rating, AMBEL",[2]; 0.125 kg/ha,4.0
same,"Herbicidal effect rating, AMBEL",[2]; 0.250 kg/ha,6.0
same,"Herbicidal effect rating, CASOB","CASSIA OBTUSIFOLIA, L.; 0.031 kg/ha",2.0
same,"Herbicidal effect rating, CASOB","CASSIA OBTUSIFOLIA, L.; 0.063 kg/ha",4.0
same,"Herbicidal effect rating, CASOB","CASSIA OBTUSIFOLIA, L.; 0.125 kg/ha",4.0
same,"Herbicidal effect rating, CASOB","CASSIA OBTUSIFOLIA, L.; 0.250 kg/ha",6.0
same,"Herbicidal effect rating, CHEAL","CHENOPODIUM ALBUM, L.; 0.031 kg/ha",3.0
same,"Herbicidal effect rating, CHEAL","CHENOPODIUM ALBUM, L.; 0.063 kg/ha",4.0
same,"Herbicidal effect rating, CHEAL","CHENOPODIUM ALBUM, L.; 0.125 kg/ha",7.0
same,"Herbicidal effect rating, CHEAL","CHENOPODIUM ALBUM, L.; 0.250 kg/ha",7.0
same,"Herbicidal effect rating, IPOSS",IPOMOEA SPP.; 0.031 kg/ha,4.0
same,"Herbicidal effect rating, IPOSS",IPOMOEA SPP.; 0.063 kg/ha,5.0
same,"Herbicidal effect rating, IPOSS",IPOMOEA SPP.; 0.125 kg/ha,6.0
same,"Herbicidal effect rating, IPOSS",IPOMOEA SPP.; 0.250 kg/ha,9.0
same,"Herbicidal effect rating, ECHCG",[3]; 0.031 kg/ha,0.0
same,"Herbicidal effect rating, ECHCG",[3]; 0.063 kg/ha,0.0
same,"Herbicidal effect rating, ECHCG",[3]; 0.125 kg/ha,0.0
same,"Herbicidal effect rating, ECHCG",[3]; 0.250 kg/ha,2.0
same,"Herbicidal effect rating, SETVI",[4]; 0.031 kg/ha,0.0
same,"Herbicidal effect rating, SETVI",[4]; 0.063 kg/ha,0.0
same,"Herbicidal effect rating, SETVI",[4]; 0.125 kg/ha,0.0
same,"Herbicidal effect rating, SETVI",[4]; 0.250 kg/ha,1.0
same,"Herbicidal effect rating, TRZAWO",[5]; 0.031 kg/ha,3.5
same,"Herbicidal effect rating, TRZAWO",[5]; 0.063 kg/ha,4.0
same,"Herbicidal effect rating, TRZAWO",[5]; 0.125 kg/ha,4.5
same,"Herbicidal effect rating, TRZAWO",[5]; 0.250 kg/ha,4.5
same,"Herbicidal effect rating, ZEAMX",ZEA MAYS L.; 0.031 kg/ha,3.0
same,"Herbicidal effect rating, ZEAMX",ZEA MAYS L.; 0.063 kg/ha,3.5
same,"Herbicidal effect rating, ZEAMX",ZEA MAYS L.; 0.125 kg/ha,4.0
same,"Herbicidal effect rating, ZEAMX",ZEA MAYS L.; 0.250 kg/ha,4.5
same,ORYSAT,[6]; Rate 0.031 kg/ha,1.0
same,ORYSAT,[6]; Rate 0.063 kg/ha,1.0
same,ORYSAT,[6]; Rate 0.125 kg/ha,3.0
same,ORYSAT,[6]; Rate 0.250 kg/ha,5.0
"Cn1c(=O)[nH]c(=O)n(-c2cccc(Oc3ccc(C(F)(F)F)cc3Cl)c2)c1=O [E, reference compound]",ABUTH,[1]; Rate 0.063 kg/ha,4.0
same,ABUTH,[1]; Rate 0.125 kg/ha,5.0
same,ABUTH,[1]; Rate 0.250 kg/ha,5.0
same,ABUTH,[1]; Rate 0.500 kg/ha,6.0
same,AMBEL,[2]; Rate 0.063 kg/ha,2.0
same,AMBEL,[2]; Rate 0.125 kg/ha,2.0
same,AMBEL,[2]; Rate 0.250 kg/ha,4.0
same,AMBEL,[2]; Rate 0.500 kg/ha,5.0
same,CASOB,"CASSIA OBTUSIFOLIA, L.; Rate 0.063 kg/ha",2.0
same,CASOB,"CASSIA OBTUSIFOLIA, L.; Rate 0.125 kg/ha",3.0
same,CASOB,"CASSIA OBTUSIFOLIA, L.; Rate 0.250 kg/ha",5.0
same,CASOB,"CASSIA OBTUSIFOLIA, L.; Rate 0.500 kg/ha",2.0
same,CHEAL,"CHENOPODIUM ALBUM, L.; Rate 0.063 kg/ha",7.0
same,CHEAL,"CHENOPODIUM ALBUM, L.; Rate 0.125 kg/ha",7.0
same,CHEAL,"CHENOPODIUM ALBUM, L.; Rate 0.250 kg/ha",8.0
same,CHEAL,"CHENOPODIUM ALBUM, L.; Rate 0.500 kg/ha",8.0
same,IPOSS,IPOMOEA SPP.; Rate 0.063 kg/ha,5.0
same,IPOSS,IPOMOEA SPP.; Rate 0.125 kg/ha,5.0
same,IPOSS,IPOMOEA SPP.; Rate 0.250 kg/ha,5.0
same,IPOSS,IPOMOEA SPP.; Rate 0.500 kg/ha,6.0
same,ECHCG,[3]; Rate 0.063 kg/ha,0.0
same,ECHCG,[3]; Rate 0.125 kg/ha,0.0
same,ECHCG,[3]; Rate 0.250 kg/ha,1.0
same,ECHCG,[3]; Rate 0.500 kg/ha,3.0
same,SETVI,[4]; Rate 0.063 kg/ha,0.0
same,SETVI,[4]; Rate 0.125 kg/ha,0.0
same,SETVI,[4]; Rate 0.250 kg/ha,1.0
same,SETVI,[4]; Rate 0.500 kg/ha,2.0
same,TRZAWO,[5]; Rate 0.063 kg/ha,1.0
same,TRZAWO,[5]; Rate 0.125 kg/ha,1.0
same,TRZAWO,[5]; Rate 0.250 kg/ha,1.0
same,TRZAWO,[5]; Rate 0.500 kg/ha,1.5
same,ZEAMX,ZEA MAYS L.; Rate 0.063 kg/ha,1.5
same,ZEAMX,ZEA MAYS L.; Rate 0.125 kg/ha,1.5
same,ZEAMX,ZEA MAYS L.; Rate 0.250 kg/ha,1.5
same,ZEAMX,ZEA MAYS L.; Rate 0.500 kg/ha,2.5
same,ORYSAT,[6]; Rate 0.250 kg/ha,0.0
same,ORYSAT,[6]; Rate 0.500 kg/ha,0.0
same,ORYSAT,[6]; Rate 1.000 kg/ha,0.0
